Laboratory results: article PMC9706480, “Rhamnosyltransferases involved in the biosynthesis of flavone rutinosides in Chrysanthemum species” (Plant Physiology, 2022)

Key:
Experiment in all cases: UPLC rhamnosylation assay, Michaelis-Menten fit
Settings in all cases: 0.1 mM UDP-rhamnose as co-substrate; pH 7.5, 37 °C
[1] = system: T1, CiRhaT-JX4x (UGT79A21); assay type: biochemical, Chrysanthemum indicum
T1 construct: full-length, 469 aa, MBP fusion (pMAL-c5X, tag removal not mentioned), E. coli Rosetta (DE3)

[2] = system: T2, CnRhaT-HB2x (UGT79A23); assay type: biochemical, Chrysanthemum nankingense
T2 construct: full-length, 469 aa, MBP fusion (pMAL-c5X, tag removal not mentioned), E. coli Rosetta (DE3)

[3] = system: T3, CiRhaT-HB2x (UGT79A22); assay type: biochemical, Chrysanthemum indicum
T3 construct: full-length, 469 aa, MBP fusion (pMAL-c5X, tag removal not mentioned), E. coli Rosetta (DE3)

[4] = system: T4, CiRhaT-GD4x (UGT79A20); assay type: biochemical, Chrysanthemum indicum
T4 construct: full-length, 469 aa, MBP fusion (pMAL-c5X, tag removal not mentioned), E. coli Rosetta (DE3)

## COc1ccc(-c2cc(=O)c3c(O)cc(O[C@@H]4O[C@H](CO)[C@@H](O)[C@H](O)[C@H]4O)cc3o2)cc1 [compound 1, acacetin-7-O-glucoside]
[1]
  Km: 8.27 ± 0.984 µM
[2]
  Km: 9.45 ± 1.5 µM
[3]
  Km: 8.71 ± 1.79 µM
[4]
  Km: 14.2 ± 1.36 µM

## O=c1cc(-c2ccc(O)cc2)oc2cc(O[C@@H]3O[C@H](CO)[C@@H](O)[C@H](O)[C@H]3O)cc(O)c12 [compound 2, apigenin-7-O-glucoside]
[1]
  Km: 45.3 ± 6.08 µM
[2]
  Km: 140 ± 32.1 µM
[3]
  Km: 57.1 ± 5.34 µM
[4]
  Km: 32.4 ± 5.9 µM

## COc1ccc(-c2cc(=O)c3c(O)cc(O[C@@H]4O[C@H](CO)[C@@H](O)[C@H](O)[C@H]4O)cc3o2)cc1O [compound 3, diosmetin-7-O-glucoside]
[1]
  Km: 7.67 ± 0.809 µM
[2]
  Km: 17.7 ± 2.82 µM
[3]
  Km: 9.35 ± 1.38 µM
[4]
  Km: 12.9 ± 1.27 µM
